{
  "source": "paper PMC9468151",
  "about": "“Identification of a binding site on soluble RANKL that can be targeted to inhibit soluble RANK-RANKL interactions and treat osteoporosis” (Nature Communications, 2022)",
  "key": {"[1]": {"tested_on": "human sRANKL and human OPG", "assay": "In vitro pull-down assay of sRANKL binding to OPG", "method": "To evaluate whether S3-15 affects the binding of sRANKL or mRANKL to OPG, we did the pull-down assay.\nsRANKL-OPG: 200 ng human sRANKL with his-sumo tag was incubated with Ni gel at 4 °C for 10 min. Then the Ni gel was washed with PBS for 3 times. 500 μL PBS that contains 100 ng Fc tag human OPG. Then S3-15 was treated in different concentration (0, 10, 1 and 0.3 μM). The mixtures were incubating at 4 °C for 30 min. Washed with PBS for 3 times. 500 μL 1% Triton X-100 in PBS was then added at 4 °C. The concentration of OPG was tested by OPG ELISA kit (USCN, China)."}, "[2]": {"biological_target": "mouse mRANKL and mouse OPG (Mus musculus, UniProt O35235)", "sequence (O35235 whole entry)": "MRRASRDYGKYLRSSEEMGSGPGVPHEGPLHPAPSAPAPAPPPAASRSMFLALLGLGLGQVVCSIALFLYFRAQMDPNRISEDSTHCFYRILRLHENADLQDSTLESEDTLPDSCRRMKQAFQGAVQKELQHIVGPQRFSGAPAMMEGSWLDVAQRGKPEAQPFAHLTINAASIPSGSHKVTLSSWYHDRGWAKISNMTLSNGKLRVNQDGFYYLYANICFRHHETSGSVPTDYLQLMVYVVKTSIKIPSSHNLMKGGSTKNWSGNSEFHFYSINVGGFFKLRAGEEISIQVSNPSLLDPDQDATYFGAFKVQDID", "assay": "mRANKL-OPG binding, HEK 293T cells with full length mouse RANKL", "assay_type": "cell-based", "method": "mRANKL-OPG: MC3T3-E1 cells were differentiated by osteoblast differentiation medium (Pythonbio, China) for 2 days. Then cells were exposed to 1 M NaCl for 5 minutes to remove endogenous OPG, washed once in PBS, and fixed with 70% ethanol for 5 minutes at 4 °C. Fixed cells were wash once by PBS and then exposed to PBS that containing 100 ng mouse OPG (Sino, China) or 100 ng mouse OPG with 1 μM S3-15 and incubated for an additional 30 min at 4 °C. Cell layers were washed 2 times with PBS and lysed with 1% triton in PBS. The concentration of OPG in cell lysates were measured with an OPG ELISA kit (USCN, China). Similar proceed were performed using HEK 293 T cells that transfer full length mouse RANKL or human RANKL."}, "[3]": {"tested_on": "osteoclast markers (DC-stamp, Ctsk, MMP9, Tracp, Oscar, Calcr)", "assay": "RT-qPCR of osteoclast marker genes in BMMs", "assay_type": "cell-based, mouse", "method": "The mRNA expression level of S3-15 was measured by RT–qPCR as primary described. Total cellular RNA sample was prepared using RNAiso Plus, followed by reverse transcription with PrimeScript™ MixRT Master Mix reverse transcriptase kit. Then quantitative real-time PCR assays were performed with TB Green™ premix EX Taq™ II kit on an Applied Biosystems. […] signaling inhibiting effect was determined by western blotting. RAW264.7 cells were treated with 5 μM S3-15 with or without sRANKL (100 ng/mL) for 5, 10, 30 and 60 min after starved for 1 h. Then the cells were washed with cold PBS and lysed by RIPA Lysis Buffer. Cell lysates were then processed for Western Blotting analyses. Primary antibody binding was detected using rat secondary antibodies (1:5000) coupled with enhanced chemiluminescence (ECL) reagents (Thermo Scientific) and visualized on Tanon 5200. Primers used for qPCR and antibodies used for western blotting were seen supplementary materials for details."}, "OVX mice": {"tested_on": "OVX mice", "assay": "Mice peripheral blood T lymphocyte subsets analysis", "assay_type": "in vivo, mouse", "settings": "OVX mice + S3-15 4 weeks, individual animals", "from_the_text": "In order to study the effect of S3-15 on the immune system, after 4 weeks of S3-15 treatment, orbital venous blood with EDTA-anticoagulated was collected for T lymphocyte subsets analysis in osteoporosis mice. We used flow cytometric to determinate T lymphocyte subsets according to the guidelines for Flow Cytometric of Beckman Coulter, FC500. Cells were stained according to manufacturer’s instruction of PE-Cyanine7 anti-Human CD8a and PE anti-Human CD4 antibodies (Tonbo Biosciences). Data analyzing was performed by using CXP software (Beckman Coulter, Supplementary Fig. 9)."}, "[4]": {"settings": "BMMs, 100 ng/mL sRANKL + S3-15, relative to vehicle"}, "[5]": {"settings": "versus Vehicle, three replicates"}},
  "note": "“And” between values parts separate entries of the source, which are not always exact repeats. Equal entries are not always repeated. Where two headings read alike, the source gives them in different places.",
  "data": [
    {"compound": "CC(=O)/C(=N\\Nc1ccccc1C(=O)O)C(=O)Nc1ccccn1", "note": "[S3-15]", "values": [
      {"measurement": "sRANKL-OPG binding signal (fig. S4m)", "setting": "[1]", "value": "0.6462 and 0.65 and 0.761"},
      {"measurement": "sRANKL and OPG binding", "setting": "[1]; 0.3 μM", "value": "cannot affects"},
      {"measurement": "sRANKL-OPG binding signal (fig. S4m)", "setting": "[1]; 0.3", "value": "0.7746 and 0.9001 and 1.2775"},
      {"measurement": "sRANKL and OPG binding", "setting": "[1]; 10 and 1 μM", "value": "significantly suppressed"},
      {"measurement": "mouse mRANKL and mouse OPG binding", "setting": "[2]; 293T cells, 1 μM", "value": "no effects"},
      {"measurement": "mRANKL-OPG binding signal (fig. S4o)", "setting": "[2]; OPG+S3-15", "value": "0.9339 and 0.9921 and 0.6577"},
      {"measurement": "osteoclastogenesis related gene expression without RANKL", "setting": "[3]; BMMs without RANKL", "value": "cannot affect"},
      {"measurement": "Calcr mRNA expression", "setting": "[3]; [4]", "value": "452.218 and 472.155 and 436.053"},
      {"measurement": "Ctsk mRNA expression", "setting": "[3]; [4]", "value": "96.8459 and 61.7386 and 86.8018"},
      {"measurement": "DC-Stemp mRNA expression", "setting": "[3]; [4]", "value": "112.451 and 102.455 and 155.105"},
      {"measurement": "MMP9 mRNA expression", "setting": "[3]; [4]", "value": "167.711 and 113.637 and 211.945"},
      {"measurement": "Oscar mRNA expression", "setting": "[3]; [4]", "value": "160.036 and 111.839 and 197.432"},
      {"measurement": "Tracp mRNA expression", "setting": "[3]; [4]", "value": "180.942 and 181.792 and 170.309"},
      {"measurement": "Calcr relative expression (fig. S3i)", "setting": "[3]; [5]", "value": "0.46 and 0.59 and 1.1"},
      {"measurement": "Ctsk relative expression (fig. S3i)", "setting": "[3]; [5]", "value": "1.05 and 0.94 and 2.17"},
      {"measurement": "DC-Stamp relative expression (fig. S3i)", "setting": "[3]; [5]", "value": "0.75 and 0.62 and 1.46"},
      {"measurement": "MMP9 relative expression (fig. S3i)", "setting": "[3]; [5]", "value": "1.19 and 1.06 and 1.03"},
      {"measurement": "Oscar relative expression (fig. S3i)", "setting": "[3]; [5]", "value": "0.54 and 0.76 and 2.12"},
      {"measurement": "Tracp relative expression (fig. S3i)", "setting": "[3]; [5]", "value": "0.53 and 0.95 and 1.32"},
      {"measurement": "CD3+, % in peripheral lymphocyte", "setting": "OVX mice", "value": "36.27% and 37.35% and 37.5% and 36.96% and 36.85% and 38.5% and 35.97% and 34.6%"},
      {"measurement": "CD3+CD4+, % in CD3+ T cell", "setting": "OVX mice", "value": "61.95% and 60.18% and 56.07% and 64.9% and 64.44% and 61.9% and 58.71% and 64.19%"},
      {"measurement": "CD3+CD4+, % in peripheral lymphocyte", "setting": "OVX mice", "value": "22.2% and 22.32% and 20.69% and 23.69% and 23.71% and 23.61% and 23.29% and 21.4%"},
      {"measurement": "CD3+CD8+, % in CD3+ T cell", "setting": "OVX mice", "value": "30.94% and 33.61% and 35.99% and 30.67% and 29.41% and 32.61% and 35.04% and 29.24%"},
      {"measurement": "CD3+CD8+, % in peripheral lymphocyte", "setting": "OVX mice", "value": "11.41% and 12.7% and 13.52% and 11.4% and 10.94% and 12.69% and 10.21% and 10.64%"},
      {"measurement": "CD4+, % in peripheral lymphocyte", "setting": "OVX mice", "value": "22.3% and 22.29% and 20.64% and 23.66% and 23.37% and 23.65% and 23.23% and 21.42%"},
      {"measurement": "CD8+, % in peripheral lymphocyte", "setting": "OVX mice", "value": "11.28% and 12.51% and 13.34% and 11.29% and 10.72% and 12.52% and 9.72% and 10.53%"},
      {"measurement": "CD4+/CD8+ in CD3+ T cell", "setting": "OVX mice; ratio", "value": "2.002 and 1.791 and 1.558 and 2.116 and 2.191 and 1.898 and 1.676 and 2.195"},
      {"measurement": "CD4+/CD8+ in peripheral lymphocyte", "setting": "OVX mice; ratio", "value": "1.946 and 1.757 and 1.53 and 2.078 (2×) and 2.167 and 1.861 and 2.011"}
    ]}
  ]
}
